Test results from US12172974B2 (Biohaven Pharmaceutical Holding Company Ltd., priority 2012, dated 2024).
Entries after “also recorded” stand apart in the source; their conditions may differ.

How the values were obtained:
[1] = Stability in Simulated Gastric Fluid (SGF); assay type: in vitro ADME; settings: 37° C., 0.01 mg/mL
Protocol: (§1) Stability in Simulated Gastric Fluid (SGF) and Simulated Intestinal Fluid (SIF). Procedure from Baudy et. al. (J. Med. Chem. 2009, 52, 771-778) used. The physiological stability of prodrugs was determined by examining the stability of the compound in SGF, and SIF at 37° C. The compounds were prepared in a 9:1 mixture of the appropriate test component (SGF, SIF) and acetonitrile to a final concentration of 0.01 mg/mL. The samples were thoroughly mixed and maintained at 37° C. Each sample was injected consecutively onto an Agilent 1100 system (Luna C18, 3 μm, 50 mm×3 mm; 1 mL/min; mobile phase of 0.1% trifluoroacetic acid in water/0.1% trifluoroacetic acid in acetonitrile) after a 3 h period. The percent remaining of prodrug was calculated by comparing the area of prodrug compound versus riluzole generated. The identities of the parent compounds and conversion products were confirmed by LC/MS.

[2] = Stability in Simulated Intestinal Fluid (SIF); assay type: in vitro ADME; settings: 37° C., 0.01 mg/mL
Protocol: as §1

[3] = Metabolic stability in pooled mouse liver microsomes; assay type: in vitro ADME; settings: mouse liver microsomes 0.5 mg/mL, 1 uM, 37° C., NADPH
Protocol: (§2) Metabolic Stability: In vitro metabolic stability was determined in pooled mouse or human liver microsomes (BD Gentest) at a protein concentration of 0.5 mg/mL in reaction buffer (100 mM KH2PO4, pH 7.4 and 12 mM MgCl2). Each drug candidate was added to a final concentration of 1 uM. This mixture was pre-warmed to 37° C. for 10 minutes prior to starting the reaction with the addition of β-Nicotinamide adenine dinucleotide 2′-phosphate reduced (NADPH) to a final concentration of 1 mM. A parallel incubation lacking NADPH served as the control. After incubation for 30 min at 37° C., the reactions were quenched by the addition of acetonitrile containing 0.1% formic acid and internal standard, vortex mixed for 2 minutes and centrifuged at 4000 rpm for 10 minutes to pellet the precipitated protein. The resulting supernatant containing the drug candidate and its potential metabolites was diluted 5-fold with water containing 0.1% formic acid and submitted to LC-MS/MS analysis. […]
(§3) LC-MS/MS Analysis: An aliquot from each incubation was analyzed by LC-MS/MS with SRM detection in the positive ionization mode using an ABSciex API 5500 QTrap Mass Spectrometer interfaced via the ABSciex Turbo V IonSpray source (ESI) to an Eksigent ExpressHT LC system. […] A fast gradient, from 15 to 85% organic in 2.5 minutes, with run time of 5.0 minutes, and flow rate of 50 ul/min was utilized. Peak areas were integrated using MultiQuant v2.0 software from ABSciex.

[4] = Metabolic stability in pooled human liver microsomes; assay type: in vitro ADME; settings: human liver microsomes 0.5 mg/mL, 1 uM, 37° C., NADPH
Protocol: as §2, §3

[5] = Plasma stability in fresh mouse plasma; assay type: in vitro ADME; settings: 1 uM, 37° C.
Protocol: (§4) Plasma Stability: Assessment of plasma stability was carried out by individual incubations of drug candidates in fresh mouse or human control plasma at a concentration of 1 uM for 1 hour at 37° C. After which, the samples were de-proteinized by addition of 2 volumes of acetonitrile containing 0.1% formic acid and internal standard, vortex mixed for 2 minutes and centrifuged at 4000 rpm for 10 minutes to pellet precipitated protein. The resulting supernatant containing the drug candidates was diluted 5-fold with water containing 0.1% formic acid and submitted to LC-MS/MS analysis. All determinations were done in triplicate. […]
as §3

[6] = Plasma stability in fresh human plasma; assay type: in vitro ADME; settings: 1 uM, 37° C.
Protocol: as §4, §3

[7] = test system: Stage III and IV melanoma; settings: 14 days of treatment; cited from earlier work

| Compound | SGF (3 hours): percent of prodrug metabolized to riluzole [1] | SIF (3 hours): percent of prodrug metabolized to riluzole [2] | Metabolic Stability mouse (30 minutes): percent of prodrug metabolized to riluzole [3] | Metabolic Stability human (30 minutes): percent of prodrug metabolized to riluzole [4] | Plasma Stability mouse (1 hour): percent of prodrug metabolized to riluzole [5] | Plasma Stability Human (1 hour): percent of prodrug metabolized to riluzole [6] | patients with clinical or radiologic evidence of tumor response [7] |
| --- | --- | --- | --- | --- | --- | --- | --- |
| CN(C)CCCOC(=O)Nc1nc2ccc(OC(F)(F)F)cc2s1 [Cpd 19, (6-Trifluoromethoxy-benzothiazol-2-yl)-carbamic acid 3-dimethylamino-propyl ester] | 0% | 0% | 71% | 0% | 0% | 0% |  |
| O=C(O)CCC(=O)Nc1nc2ccc(OC(F)(F)F)cc2s1 [Cpd 20, N-(6-Trifluoromethoxy-benzothiazol-2-yl)-succinamic acid] | 0% | 0% | 70% | 0% | 0% | 16% |  |
| COC(=O)CCC(=O)Nc1nc2ccc(OC(F)(F)F)cc2s1 [Cpd 21, N-(6-Trifluoromethoxy-benzothiazol-2-yl)-succinamic acid methyl ester] | 3% | 0% | 77% | 34% | 99% | 25% |  |
| CC(C)(C)OC(=O)CCC(=O)Nc1nc2ccc(OC(F)(F)F)cc2s1 [Cpd 22, N-(6-Trifluoromethoxy-benzothiazol-2-yl)-succinamic acid tert-butyl ester] | 0% | 0% | 0% | 21% | 0% | 0% |  |
| O=C(CCC(=O)Nc1nc2ccc(OC(F)(F)F)cc2s1)NCc1cccnc1 [Cpd 23, N-Pyridin-3-ylmethyl-N′-(6-trifluoromethoxy-benzothiazol-2-yl)-succinamide] | 0% | 10% | 0% | 4% | 26% | 0% |  |
| CNCCCCC(=O)Nc1nc2ccc(OC(F)(F)F)cc2s1 [Cpd 25, 5-Methylamino-pentanoic acid (6-trifluoromethoxy-benzothiazol-2-yl)-amide] | 0% | 0% | 78% | 0% | 0% | 0% |  |
| NCCCCC(=O)Nc1nc2ccc(OC(F)(F)F)cc2s1 [Cpd 26, 5-Amino-pentanoic acid (6-trifluoromethoxy-benzothiazol-2-yl)-amide] | 0% | 0% | 66% | 19% | 0% | 5% |  |
| O=C(Cc1ccccc1[N+](=O)[O-])Nc1nc2ccc(OC(F)(F)F)cc2s1 [Cpd 27, 2-(2-Nitro-phenyl)-N-(6-trifluoromethoxy-benzothiazol-2-yl)-acetamide] | 0% | 0% | 59% | 22% | 0% | 13% |  |
| Nc1ccc(C(=O)Nc2nc3ccc(OC(F)(F)F)cc3s2)cc1 [Cpd 28, 4-Amino-N-(6-trifluoromethoxy-benzothiazol-2-yl)-benzamide] | 0% | 0% | 24% | 80% | 0% | 0% |  |
| Nc1nc2ccc(OC(F)(F)F)cc2s1 [riluzole, 6-(trifluoromethoxy)-1,3-benzothiazol-2-amine] |  |  |  |  |  |  | four of twelve; also recorded: four of 12 |
